From article PMC12332667, “Role of Structural Modifications in Peptidomimetic Compounds as Potential Antimicrobial Agents against Staphylococcus aureus and Streptococcus pyogenes: Balancing Bioavailability, Safety, and Antimicrobial Activity” (ACS Omega, 2025)
≈ marks a conversion by molar mass, not a printed value.

Test system: S. intemrdius c.i.
Test: MIC/MBC broth microdilution, S. intermedius
Type: cell-based, Staphylococcus intermedius
How it was run: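 Bacteria inoculated at about 10^5 CFU/mL in BHI broth and incubated 18 h at 37 °C with serial dilutions of peptidomimetics, NCCLS microdilution format. MBC taken as lowest concentration leaving no more than 3 colonies (≥99.9% kill); MIC as lowest concentration without obvious growth (≥90% of untreated); solvent controls included.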

| SMILES | MBC (H2O) [µg/mL] | MIC (H2O) [µg/mL] | MBC (water additive DMSO) [µg/mL] | MIC (water additive DMSO) [µg/mL] | MBC (water additive EtOH) [µg/mL] | MIC (water additive EtOH) [µg/mL] |
| --- | --- | --- | --- | --- | --- | --- |
| CC(C)[C@@H](CNC(=O)C(=Cc1ccccc1)c1ccccc1)NC(=O)[C@H](CCCNC(=N)N)NC(=O)[C@H](CCCCNC(=N)N)NC(=O)OCc1ccccc1 [Compound A-192] | 16 (≈ 20.8 µM) | 8 (≈ 10.4 µM) | 16 (≈ 20.8 µM) | 8 (≈ 10.4 µM) | 16 (≈ 20.8 µM) | 8 (≈ 10.4 µM) |
| CC(C)[C@@H](CNC(=O)C(=Cc1ccccc1)c1ccccc1)NC(=O)[C@H](Cc1c[nH]cn1)NC(=O)[C@H](CCCCNC(=N)N)NC(=O)OCc1ccccc1 [Compound A-193] | 32 (≈ 42.7 µM) | 16 (≈ 21.3 µM) |  | 32 (≈ 42.7 µM) | 32 (≈ 42.7 µM) | 16 (≈ 21.3 µM) |
